The target of one experiment is T1, human σ1 receptor (Homo sapiens, UniProt Q99720).
T1 construct: expressed in transfected cells; host or cells: HEK-293
The experiment is described as follows: Human σ1 receptor radioligand assay ([3H](+)-pentazocine, transfected HEK-293 membranes). As to conditions: class scale, read-out: Binding σ-1 Ki. The method, boiled down:
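Membranes (7 μg) from transfected HEK-293 cells were incubated with 5 nM [3H](+)-pentazocine in 50 mM Tris-HCl, pH 8, for 120 minutes at 37° C, with 10 μM haloperidol defining non-specific binding. Bound radioactivity was filtered and counted by scintillation. Results are % inhibition at 1 or 10 μM or Ki from five concentrations.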

A further experiment concerns the target T2, human σ2/TMEM97 receptor (Homo sapiens, UniProt Q5BJF2).
T2 construct: expressed in transfected cells; host or cells: HEK-293
As to the kind of experiment: Binding assay to human σ2/TMEM97 receptor ([3H]-DTG, transfected HEK-293 membranes). The following applies: class scale, read-out: Binding σ-2 Ki. Put shortly:
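Membranes (15 μg) from transfected HEK-293 incubated 120 min at 25 °C with 10 nM [3H]-DTG in 50 mM Tris-HCl pH 8.0; nonspecific binding with 10 μM haloperidol. Filtration and scintillation counting; % inhibition at 1 or 10 μM, or Ki from five concentrations.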

Molecules are shown by their SMILES.

T1 sequence (Q99720 whole entry): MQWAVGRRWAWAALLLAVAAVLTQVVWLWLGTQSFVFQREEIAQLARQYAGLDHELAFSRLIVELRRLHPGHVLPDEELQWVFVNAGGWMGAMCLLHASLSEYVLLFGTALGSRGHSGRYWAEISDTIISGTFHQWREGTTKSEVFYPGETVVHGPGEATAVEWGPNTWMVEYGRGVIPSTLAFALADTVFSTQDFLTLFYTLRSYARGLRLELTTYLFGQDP
T2 sequence (Q5BJF2 whole entry): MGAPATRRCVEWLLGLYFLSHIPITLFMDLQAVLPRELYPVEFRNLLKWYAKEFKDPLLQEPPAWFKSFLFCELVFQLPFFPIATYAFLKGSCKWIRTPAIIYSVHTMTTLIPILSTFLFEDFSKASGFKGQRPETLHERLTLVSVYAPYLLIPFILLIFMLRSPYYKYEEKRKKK

Usually Ki stands for a dissociation constant, usually derived from enzyme kinetics or from competition with a known ligand. For `CCn1nc(-c2ccnc(C)c2)c(C(=O)N2CCC3(CCN(CCC(C)(C)C)CC3)CC2)c1Cl` [Example 207, (5-Chloro-1-ethyl-3-(2-methylpyridin-4-yl)-1H-pyrazol-4-yl)(9-(3,3-dimethylbutyl)-3,9-diazaspiro[5.5]undecan-3-yl)methanone], the Ki is 100 to 500 nM at human σ1 receptor and under 100 nM on human σ2/TMEM97 receptor.

Consider `CCn1nc(-c2ccon2)c(C(=O)N2CCC3(CCN(CCC(C)(C)C)CC3)CC2)c1Cl` [Example 171, (5-Chloro-1-ethyl-3-(isoxazol-3-yl)-1H-pyrazol-4-yl)(9-(3,3-dimethylbutyl)-3,9-diazaspiro[5.5]undecan-3-yl)methanone], for which the figures for the Ki at human σ1 receptor and at human σ2/TMEM97 receptor were 100 to 500 nM and under 100 nM, respectively.

As to `Cc1cc(-c2nn(-c3ccccc3)c(Cl)c2CN2CCCCC(NCCC(C)C)C2)no1` (stereo not shown) [Example 18, 1-((5-Chloro-3-(5-methylisoxazol-3-yl)-1-phenyl-1H-pyrazol-4-yl)methyl)-N-isopentylazepan-3-amine], the inhibitory constant (Ki) on human σ1 receptor is 100 to 500 nM; on human σ2/TMEM97 receptor, over 1000 nM.

In the case of `CCCn1nc(-c2cc(C)on2)c(C(=O)N2CCC3(CCN(CCC(C)(C)C)CC3)CC2)c1Cl` [Example 182, (5-Chloro-3-(5-methylisoxazol-3-yl)-1-propyl-1H-pyrazol-4-yl)(9-(3,3-dimethylbutyl)-3,9-diazaspiro[5.5]undecan-3-yl)methanone], the inhibition constant (Ki) was 100 to 500 nM at human σ1 receptor and under 100 nM at human σ2/TMEM97 receptor.

Regarding `Cc1cc(-c2nn(C)c(Cl)c2C(=O)N2CCC3(CCN(CCC(C)(C)C)C3)CC2)no1` [Example 87, (5-Chloro-1-methyl-3-(5-methylisoxazol-3-yl)-1H-pyrazol-4-yl)(2-(3,3-dimethylbutyl)-2,8-diazaspiro[4.5]decan-8-yl)methanone], the Ki is 500 to 1000 nM on human σ1 receptor and under 100 nM at human σ2/TMEM97 receptor.

Take `CCn1nc(-c2cc(C)on2)c(C(=O)N[C@H]2CC[C@H](NCCC(C)(C)C)CC2)c1Cl` [Example 200, 5-Chloro-N-((1r,4r)-4-((3,3-dimethylbutyl)amino)cyclohexyl)-1-ethyl-3-(5-methylisoxazol-3-yl)-1H-pyrazole-4-carboxamide]: the results for the inhibition constant (Ki) on human σ1 receptor and at human σ2/TMEM97 receptor were 500 to 1000 nM and under 100 nM, respectively.

With `CCn1nc(-c2cc(C)on2)c(C(=O)Nc2ccc3c(c2)CCN(CCC(C)(C)C)C3)c1Cl` [Example 204, 5-Chloro-N-(2-(3,3-dimethylbutyl)-1,2,3,4-tetrahydroisoquinolin-6-yl)-1-ethyl-3-(5-methylisoxazol-3-yl)-1H-pyrazole-4-carboxamide], the Ki at human σ1 receptor and at human σ2/TMEM97 receptor was under 100 nM in each case.

With `Cn1cc(-c2nn(C)c(Cl)c2C(=O)NC2CC3(CCN(CCC(C)(C)C)CC3)C2)cn1` [Example 140, 5-Chloro-N-(7-(3,3-dimethylbutyl)-7-azaspiro[3.5]nonan-2-yl)-1,1′-dimethyl-1H,1′H-[3,4′-bipyrazole]-4-carboxamide], the Ki on human σ1 receptor was 500 to 1000 nM; on human σ2/TMEM97 receptor it was under 100 nM.

For `Cn1nc(-c2cccc(C(F)(F)F)n2)c(CN2CC3(CCN(CCC(C)(C)C)CC3)CC2=O)c1Cl` [Example 227, 2-((5-Chloro-1-methyl-3-(6-(trifluoromethyl)pyridin-2-yl)-1H-pyrazol-4-yl)methyl)-8-(3,3-dimethylbutyl)-2,8-diazaspiro[4.5]decan-3-one], the Ki at human σ1 receptor and at human σ2/TMEM97 receptor was under 100 nM throughout.

Regarding `Cc1cc(-c2nn(C)c(Cl)c2CN2CCC3(CC2)CCN(CC(C)(C)C)CC3)no1` [Example 68, 3-(5-Chloro-1-methyl-4-((9-neopentyl-3,9-diazaspiro[5.5]undecan-3-yl)methyl)-1H-pyrazol-3-yl)-5-methylisoxazole], the inhibition constant (Ki) at human σ1 receptor is 100 to 500 nM; at human σ2/TMEM97 receptor it was under 100 nM.

Consider `Cc1cc(-c2nn(C)c(Cl)c2C(=O)N2CCC[C@@H](CNCCC(C)C)C2)no1` [Example 126, (S)-(5-Chloro-1-methyl-3-(5-methylisoxazol-3-yl)-1H-pyrazol-4-yl)(3-((isopentylamino)methyl)piperidin-1-yl)methanone], for which the Ki on human σ1 receptor and on human σ2/TMEM97 receptor was over 1000 nM each time.

As for `Cc1cc(-c2nn(C(C)C)c(Cl)c2C(=O)N2CCC3(CCN(CCC(C)(C)C)CC3)CC2)no1` [Example 183, (5-Chloro-1-isopropyl-3-(5-methylisoxazol-3-yl)-1H-pyrazol-4-yl)(9-(3,3-dimethylbutyl)-3,9-diazaspiro[5.5]undecan-3-yl)methanone], the Ki was 500 to 1000 nM at human σ1 receptor and under 100 nM at human σ2/TMEM97 receptor.

Turning to `Cc1cc(-c2nn(C)c(Cl)c2C(=O)N2CCC3(CCN(Cc4ccc(F)cc4)CC3)CC2)no1` [Example 129, (5-Chloro-1-methyl-3-(5-methylisoxazol-3-yl)-1H-pyrazol-4-yl)(9-(4-fluorobenzyl)-3,9-diazaspiro[5.5]undecan-3-yl)methanone], the Ki at human σ1 receptor was 100 to 500 nM; at human σ2/TMEM97 receptor, under 100 nM.

On to `Cc1cc(-c2nn(C)c(Cl)c2C(=O)N2CCCC3(CN(CCC(C)(C)C)C3)C2)no1` [Example 193, (5-Chloro-1-methyl-3-(5-methylisoxazol-3-yl)-1H-pyrazol-4-yl)(2-(3,3-dimethylbutyl)-2,6-diazaspiro[3.5]nonan-6-yl)methanone], for which the values for the Ki at human σ1 receptor and on human σ2/TMEM97 receptor were 500 to 1000 nM and under 100 nM, respectively.

Consider `Cc1cc(-c2nn(C)c(Cl)c2CN2CCC3(CCN(CCC(C)(C)C)CC3)CC2)no1` [Example 53, 3-(5-Chloro-4-((9-(3,3-dimethylbutyl)-3,9-diazaspiro[5.5]undecan-3-yl)methyl)-1-methyl-1H-pyrazol-3-yl)-5-methylisoxazole], for which the Ki was 100 to 500 nM on human σ1 receptor and under 100 nM at human σ2/TMEM97 receptor.

Consider `CCn1nc(-c2ccon2)c(CC(=O)NC2CCN(CCC(C)(C)C)CC2)c1Cl` [Example 221, 2-(5-Chloro-1-ethyl-3-(isoxazol-3-yl)-1H-pyrazol-4-yl)-N-(1-(3,3-dimethylbutyl)piperidin-4-yl)acetamide], for which the Ki at human σ1 receptor and at human σ2/TMEM97 receptor was under 100 nM in each case.

`Cc1cc(-c2nn(C)c(Cl)c2CN2CCC3(CCN(CCC(C)C)CC3)CC2)no1` [Example 67, 3-(5-Chloro-4-((9-isopentyl-3,9-diazaspiro[5.5]undecan-3-yl)methyl)-1-methyl-1H-pyrazol-3-yl)-5-methylisoxazole]: the Ki at human σ1 receptor was 500 to 1000 nM; at human σ2/TMEM97 receptor it was under 100 nM.

In the case of `Cc1cc(-c2nn(C)c(Cl)c2CN2CCCCC(NCCC(C)C)C2)no1` (stereo not shown) [Example 2, 1-((5-Chloro-1-methyl-3-(5-methylisoxazol-3-yl)-1H-pyrazol-4-yl)methyl)-N-isopentylazepan-3-amine], the inhibition constant Ki at human σ1 receptor was 500 to 1000 nM; at human σ2/TMEM97 receptor it was over 1000 nM.

Turning to `Cc1cc(-c2nn(C)c(Cl)c2C(=O)NC2CC3(CCN(CC(C)(C)C)CC3)C2)no1` [Example 154, 5-Chloro-1-methyl-3-(5-methylisoxazol-3-yl)-N-(7-neopentyl-7-azaspiro[3.5]nonan-2-yl)-1H-pyrazole-4-carboxamide], the inhibition constant Ki at human σ1 receptor and at human σ2/TMEM97 receptor was 100 to 500 nM throughout.

With `Cc1cc(-c2nn(C)c(Cl)c2CN2CCCC(NCCC(C)C)CC2)no1` (stereo not shown) [Example 24, 1-((5-Chloro-1-methyl-3-(5-methylisoxazol-3-yl)-1H-pyrazol-4-yl)methyl)-N-isopentylazepan-4-amine], the Ki is over 1000 nM at human σ1 receptor and under 100 nM at human σ2/TMEM97 receptor.

Source of the values: patent publication US20240239781A1, “1H-PYRAZOLE DERIVATIVES AS SIGMA LIGANDS” (ACONDICIONAMIENTO TARRASENSE, priority 2021, published 2024).
